assay: recombinant barcode read abundance after kanamycin selection (control-corrected) (log10(CPM+1)); higher = more efficient recombination; sequences stand for … in AGTGCAGAGAAAATCGGCCAGTTTTCTCTGCCTGCAGTCCGCATGCCGT…AGATTTATGCAGCGGACTGCCTTTCTCCCAAAGTGATAAACCGGACAGTATCATGGACCGGTTTTCCCGGTAATCCGTATTTGCAAGGTTGGTTTCACT; site = the 11-nt target
Method: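 Pooled E. coli target-specificity screen for the IS621 bridge recombinase. Each library plasmid pairs an 11-nt target (CT core) with a bridge RNA whose target-binding loop (9-nt LTG + 4-nt RTG) is reprogrammed; the rest of the 177-nt WT IS621 bridge RNA scaffold is fixed. The plasmid is co-electroporated with a WT donor plasmid; recombinase is induced with 0.1 mM IPTG and recombinants are selected on kanamycin. Recombinant barcodes are sequenced, converted to CPM, averaged over two biological replicates and corrected by the unselected control CPM. Molecule = full bridge RNA written as DNA: LTG = specificity nt 1-9, RTG = reverse complement of specificity nt 8-11, in the WT scaffold.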
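Also: IS621 recombinase and bridge RNA in Escherichia coli cells.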

Row | Sequence | recombinant barcode read abundance (log10)
1 | TGCATAGCTTGGGTTCTAACCTGTTGCCA (site CTTGCGACTAA) | 0.068
2 | AGAGTCCCTTGGGTTCTAACCTGTTGCGG (site AGAGTCCCTCC) | 3.09
3 | AGTCCTGCTTGGGTTCTAACCTGTTGCCT (site GGTCCTGCTAG) | 0.154
4 | CTAGCCTCTTGGGTTCTAACCTGTTGCAT (site CTAACCTCTAT) | 0.739
5 | TGACTACCTTGGGTTCTAACCTGTTGCCT (site TGACTACCTAG) | 0.838
6 | GAACTGCCTTGGGTTCTAACCTGTTGCTT (site CCTGACTCTGT) | 0.00853
7 | GGTCATGCTTGGGTTCTAACCTGTTGCCT (site GGTCATCCTAG) | 0.131
8 | TGAAATACTTGGGTTCTAACCTGTTGCCT (site TGAAATACTAG) | 0.232
9 | TCTCACTCTTGGGTTCTAACCTGTTGCCT (site TCCCACTCTAG) | 0.504
10 | CCGTGTCCTTGGGTTCTAACCTGTTGCCG (site GCGTGTCCTTG) | 0
11 | CACAGATCTTGGGTTCTAACCTGTTGCTT (site CACAGATCTAA) | 0.351
12 | TTGCCAACTTGGGTTCTAACCTGTTGCCT (site TTGCTAACTAG) | 0.00831
13 | CGTTGCCCTTGGGTTCTAACCTGTTGCCT (site CGTTGCCCTAG) | 0.166
14 | GCCTGTTCTTGGGTTCTAACCTGTTGCCT (site GCCTGTTCTAG) | 0.462
15 | CGGACGCCTTGGGTTCTAACCTGTTGCCT (site CGGACGACTAG) | 0.352
16 | CTCCAATCTTGGGTTCTAACCTGTTGCCT (site CTCCAATCTAG) | 0.666
17 | TTCTATGCTTGGGTTCTAACCTGTTGCGT (site TTCTATGCTAC) | 0.131
18 | TGCGTAACTTGGGTTCTAACCTGTTGCCA (site TGCGTAACTTG) | 0.104
19 | AGAATCCCTTGGGTTCTAACCTGTTGCAT (site ATAAACCCTAT) | 0.0539
20 | ACCCGTACTTGGGTTCTAACCTGTTGCCT (site ACCCGTACTAG) | 1.26
21 | GGCGAACCTTGGGTTCTAACCTGTTGCAT (site GGCGAACCTAT) | 1.82

Row | Sequence | recombinant barcode read abundance (log10)
22 | TCGTGCACTTGGGTTCTAACCTGTTGCCT (site TCGTGCGCTAG) | 0.0852
23 | GGTATGTCTTGGGTTCTAACCTGTTGCTT (site GGTATGTCTAA) | 0.641
24 | GGTCCACCTTGGGTTCTAACCTGTTGCCT (site GGTCCACCTAG) | 1.07
25 | GAAGCTACTTGGGTTCTAACCTGTTGCGT (site GAAGCTACTAC) | 1.84
26 | ATGCATCCTTGGGTTCTAACCTGTTGCCT (site ACGCATCCTAG) | 0.0924
27 | CAAACAACTTGGGTTCTAACCTGTTGCCT (site CAAACAACTAG) | 0.235
28 | TCGTCTCCTTGGGTTCTAACCTGTTGCTT (site TTATCTCCTAA) | 0.386
29 | AATTGTCCTTGGGTTCTAACCTGTTGCGT (site AATTGTCCTAG) | 0.154
30 | CTGCTGTCTTGGGTTCTAACCTGTTGCCA (site CTGCTGTCTTG) | 0.095
31 | TCGCGGCCTTGGGTTCTAACCTGTTGCCT (site GCGCGGCCTAG) | 0.1
32 | TCCATCCCTTGGGTTCTAACCTGTTGCCT (site TCTATCCCTAG) | 0.116
33 | CCTACATCTTGGGTTCTAACCTGTTGCTA (site CCTACATCTAT) | 0.177
34 | CATCCGACTTGGGTTCTAACCTGTTGCTC (site AGATTTCCTAT) | 0.122
35 | GGCTGCCCTTGGGTTCTAACCTGTTGCCT (site GGCTGCCCTAG) | 0.258
36 | TCACGGACTTGGGTTCTAACCTGTTGCCT (site TCTCGGACTAG) | 0.101
37 | GCCATTACTTGGGTTCTAACCTGTTGCCT (site GCCATTACTAG) | 0.0923
38 | AGGTGTGCTTGGGTTCTAACCTGTTGCCT (site AGGTCTGCTAG) | 0.123
39 | TTGCCAACTTGGGTTCTAACCTGTTGCCT (site TTGCCAACTAG) | 0.332
40 | GGGGCGTCTTGGGTTCTAACCTGTTGCTT (site GGGGCTTCTAA) | 0.0767
41 | ATGAGGCCTTGGGTTCTAACCTGTTGCCT (site TTGAGGCCTAG) | 0.209
42 | CGTGTAACTTGGGTTCTAACCTGTTGCCT (site CGTATATCTAG) | 0.13

Row | Sequence | recombinant barcode read abundance (log10)
43 | CGGACTTCTTGGGTTCTAACCTGTTGCCT (site CGGACTTCTAG) | 0.0521
44 | CTATGCCCTTGGGTTCTAACCTGTTGCTA (site CTATGCCCTTA) | 1.16
45 | TAGGCGGCTTGGGTTCTAACCTGTTGCGT (site AGCTGTCCTCT) | 0.0593
46 | CTAAGCTCTTGGGTTCTAACCTGTTGCTC (site CTAAGCTCTTA) | 0.119
47 | TGTAGAGCTTGGGTTCTAACCTGTTGCAG (site TGTAGAGCTCT) | 0.872
48 | CCGATCCCTTGGGTTCTAACCTGTTGCCT (site CAGATCCCTAG) | 0.348
49 | TGAGAACCTTGGGTTCTAACCTGTTGCCT (site CGAGAACCTAG) | 0.486
50 | TCGGATACTTGGGTTCTAACCTGTTGCCA (site TAGGACACTTG) | 0.0618
51 | TGGTGCCCTTGGGTTCTAACCTGTTGCGT (site TGGGGCCCTAG) | 0.122
52 | CGATAGCCTTGGGTTCTAACCTGTTGCCT (site CGATAGCCTAG) | 0.643
53 | AGGCGTACTTGGGTTCTAACCTGTTGCCT (site AGCCGTACTAG) | 0.302
54 | ATAAAAGCTTGGGTTCTAACCTGTTGCCT (site ATAATAGCTAG) | 0.59
55 | CTCTATACTTGGGTTCTAACCTGTTGCCA (site CTCTAAACTTG) | 0.0863
56 | AGGACAACTTGGGTTCTAACCTGTTGCCT (site AGGACAACTAG) | 0.048
57 | TTGACATCTTGGGTTCTAACCTGTTGCCT (site TTGACATCTAG) | 0.216
58 | GGTCAACCTTGGGTTCTAACCTGTTGCCT (site GCTCAACCTAG) | 0.172
59 | GAGCCATCTTGGGTTCTAACCTGTTGCTT (site GAGTCGTCTAA) | 0.261
60 | TGTTGGTCTTGGGTTCTAACCTGTTGCTT (site TGTTGGTCTAA) | 0.0212
61 | ATGAGAACTTGGGTTCTAACCTGTTGCCG (site ATGAGAACTCG) | 1.05
62 | TAGGTCCCTTGGGTTCTAACCTGTTGCGA (site AAGGTCCCTCC) | 0.0896
63 | TCCATCCCTTGGGTTCTAACCTGTTGCCT (site TCAATCCCTAG) | 0.00792

Row | Sequence | recombinant barcode read abundance (log10)
64 | TTCGAAACTTGGGTTCTAACCTGTTGCGT (site TCCGAGACTAC) | 0.221
65 | GGATCTACTTGGGTTCTAACCTGTTGCCT (site GTATCTACTAG) | 0.0262
66 | CTAGACTCTTGGGTTCTAACCTGTTGCTG (site CTAGACTCTAA) | 0.136
67 | GGAATGTCTTGGGTTCTAACCTGTTGCCT (site GGAATGTCTAG) | 2.09
68 | CATTATTCTTGGGTTCTAACCTGTTGCCT (site CATGATTCTAG) | 0.071
69 | TGACCAGCTTGGGTTCTAACCTGTTGCCT (site TGACCAGCTAG) | 1.05
70 | CGCTTACCTTGGGTTCTAACCTGTTGCCT (site GGCTTACCTAG) | 0.0208
71 | GTAATTACTTGGGTTCTAACCTGTTGCCT (site GTAATTACTAG) | 0.441
72 | CGATTAACTTGGGTTCTAACCTGTTGCCT (site CGATTATCTAG) | 0.0439
73 | TTCTATCCTTGGGTTCTAACCTGTTGCCT (site TTCTGTCCTAG) | 0.0469
74 | GGTCCCACTTGGGTTCTAACCTGTTGCCT (site GGTCCCACTAG) | 0.943
75 | TACAAGACTTGGGTTCTAACCTGTTGCGT (site GGACCCTCTGT) | 0.168
76 | TAGCTCCCTTGGGTTCTAACCTGTTGCCG (site TAGCTCCCTTG) | 0.379
77 | GTACTGCCTTGGGTTCTAACCTGTTGCCT (site GTACGGCCTAG) | 0.531
78 | TGAGAGGCTTGGGTTCTAACCTGTTGCCT (site TGAGGGGCTAG) | 0.361
79 | CTCAAGGCTTGGGTTCTAACCTGTTGCGT (site CTCAAGGCTAC) | 1.6
80 | TATTATACTTGGGTTCTAACCTGTTGCGT (site TATTATACTAG) | 0.0727
81 | ATAAACCCTTGGGTTCTAACCTGTTGCAT (site AGAATCCCTAT) | 0.324
82 | TATACAACTTGGGTTCTAACCTGTTGCCT (site TATACAACTAG) | 0.112

Source: the supplement of paper PMC11208160
